Results taken from the OligoGym collection.
HELM strings list units from the 5' end as sugar, base in round brackets, then linkage (d deoxyribose, r ribose, m 2'-O-methyl, p phosphodiester). Strings are as the collection lists them, not checked against the first reports. ss, as = sense and antisense strand; [lna] = locked nucleic acid (LNA); [hna] = hexitol nucleic acid; [fl2r] = 2'-fluoro

Conditions: siRNA
Further: test system not given here.

Substance	target mRNA knockdown [%]
RNA1{[fl2r](G)p.r(G)p.[fl2r](C)p.r(U)p.[fl2r](U)p.r(A)p.[fl2r](G)p.r(U)p.[fl2r](C)p.r(A)p.[fl2r](C)p.r(U)p.[fl2r](C)p.r(C)p.[fl2r](U)p.r(C)p.[fl2r](U)p.r(U)p.[fl2r](C)p.r(T)p.r(T)}|RNA2{r(G)p.r(A)p.r(A)p.r(G)p.r(A)p.r(G)p.r(G)p.r(A)p.r(G)p.r(U)p.r(G)p.r(A)p.r(C)p.r(U)p.r(A)p.r(A)p.r(G)p.r(C)p.r(C)p.r(T)p.r(T)}$$$RNA1{StrandType:ss}|RNA2{StrandType:as}$	23
RNA1{[fl2r](G)p.r(U)p.[fl2r](U)p.r(C)p.[fl2r](A)p.r(C)p.[fl2r](G)p.r(U)p.[fl2r](C)p.r(C)p.[fl2r](U)p.r(A)p.[fl2r](C)p.r(C)p.[fl2r](C)p.r(C)p.[fl2r](U)p.r(U)p.[fl2r](U)p.r(T)p.r(T)}|RNA2{r(A)p.r(A)p.r(A)p.r(G)p.r(G)p.r(G)p.r(G)p.r(U)p.r(A)p.r(G)p.r(G)p.r(A)p.[fl2r](C)p.r(G)p.r(U)p.r(G)p.r(A)p.r(A)p.[fl2r](C)p.r(T)p.r(T)}$$$RNA1{StrandType:ss}|RNA2{StrandType:as}$	23
RNA1{[fl2r](U)p.r(A)p.[fl2r](A)p.r(C)p.[fl2r](C)p.r(C)p.[fl2r](C)p.r(A)p.[fl2r](A)p.r(G)p.[fl2r](A)p.r(A)p.[fl2r](C)p.r(G)p.[fl2r](G)p.r(G)p.[fl2r](C)p.r(U)p.[fl2r](U)p.r(T)p.r(T)}|RNA2{[fl2r](A)p.[fl2r](A)p.r(G)p.r(C)p.r(C)p.r(C)p.r(G)p.r(U)p.r(U)p.r(C)p.r(U)p.r(U)p.r(G)p.r(G)p.r(G)p.r(G)p.r(U)p.r(U)p.[fl2r](A)p.r(T)p.r(T)}$$$RNA1{StrandType:ss}|RNA2{StrandType:as}$	47
RNA1{[fl2r](U)p.r(A)p.r(A)p.r(C)p.r(C)p.r(C)p.[fl2r](C)p.r(A)p.r(A)p.r(G)p.r(A)p.r(A)p.[fl2r](C)p.r(G)p.r(G)p.r(G)p.r(C)p.r(U)p.r(U)p.r(T)p.r(T)}|RNA2{r(A)p.r(A)p.r(G)p.r(C)p.r(C)p.r(C)p.[fl2r](G)p.r(U)p.r(U)p.r(C)p.r(U)p.[fl2r](U)p.r(G)p.r(G)p.r(G)p.r(G)p.r(U)p.[fl2r](U)p.r(A)p.r(T)p.r(T)}$$$RNA1{StrandType:ss}|RNA2{StrandType:as}$	72
RNA1{[fl2r](U)p.r(A)p.r(A)p.r(C)p.r(C)p.r(C)p.r(C)p.r(A)p.r(A)p.r(G)p.r(A)p.r(A)p.r(C)p.r(G)p.r(G)p.r(G)p.r(C)p.r(U)p.r(U)p.r(T)p.r(T)}|RNA2{r(A)p.r(A)p.r(G)p.r(C)p.r(C)p.r(C)p.r(G)p.r(U)p.r(U)p.r(C)p.r(U)p.r(U)p.r(G)p.r(G)p.r(G)p.r(G)p.r(U)p.[fl2r](U)p.r(A)p.r(T)p.r(T)}$$$RNA1{StrandType:ss}|RNA2{StrandType:as}$	73
RNA1{[fl2r](U)p.r(C)p.[fl2r](C)p.r(A)p.[fl2r](A)p.r(G)p.[fl2r](C)p.r(U)p.[fl2r](U)p.r(C)p.[fl2r](C)p.r(U)p.[fl2r](C)p.r(G)p.[fl2r](U)p.r(U)p.[fl2r](G)p.r(G)p.[fl2r](U)p.r(T)p.r(T)}|RNA2{r(A)p.r(C)p.r(C)p.r(A)p.r(A)p.r(C)p.r(G)p.r(A)p.r(G)p.r(G)p.r(A)p.r(A)p.r(G)p.r(C)p.[fl2r](U)p.[fl2r](U)p.r(G)p.r(G)p.r(A)p.r(T)p.r(T)}$$$RNA1{StrandType:ss}|RNA2{StrandType:as}$	51
RNA1{[fl2r](U)p.r(C)p.[fl2r](C)p.r(G)p.[fl2r](G)p.r(C)p.[fl2r](U)p.r(A)p.[fl2r](A)p.r(C)p.[fl2r](U)p.r(C)p.[fl2r](U)p.r(G)p.[fl2r](A)p.r(G)p.[fl2r](G)p.r(A)p.[fl2r](C)p.r(T)p.r(T)}|RNA2{r(G)p.r(U)p.r(C)p.r(C)p.r(U)p.r(C)p.r(A)p.r(G)p.r(A)p.r(G)p.r(U)p.r(U)p.r(A)p.r(G)p.r(C)p.r(C)p.r(G)p.r(G)p.r(A)p.r(T)p.r(T)}$$$RNA1{StrandType:ss}|RNA2{StrandType:as}$	41
RNA1{[fl2r](U)p.r(C)p.[fl2r](C)p.r(U)p.[fl2r](C)p.r(G)p.[fl2r](U)p.r(C)p.[fl2r](G)p.r(U)p.[fl2r](C)p.r(U)p.[fl2r](G)p.r(U)p.[fl2r](U)p.r(C)p.[fl2r](U)p.r(A)p.[fl2r](A)p.r(T)p.r(T)}|RNA2{r(U)p.r(U)p.r(A)p.r(G)p.r(A)p.r(A)p.[fl2r](C)p.r(A)p.r(G)p.r(A)p.[fl2r](C)p.r(G)p.r(A)p.[fl2r](C)p.r(G)p.r(A)p.r(G)p.r(G)p.r(A)p.r(T)p.r(T)}$$$RNA1{StrandType:ss}|RNA2{StrandType:as}$	49
RNA1{[fl2r](U)p.r(U)p.[fl2r](A)p.r(C)p.[fl2r](C)p.r(C)p.[fl2r](C)p.r(G)p.[fl2r](A)p.r(U)p.[fl2r](U)p.r(C)p.[fl2r](A)p.r(G)p.[fl2r](C)p.r(C)p.[fl2r](U)p.r(C)p.[fl2r](U)p.r(T)p.r(T)}|RNA2{r(A)p.r(G)p.r(A)p.r(G)p.r(G)p.r(C)p.r(U)p.r(G)p.r(A)p.r(A)p.r(U)p.r(C)p.r(G)p.r(G)p.r(G)p.r(G)p.r(U)p.r(A)p.r(A)p.r(T)p.r(T)}$$$RNA1{StrandType:ss}|RNA2{StrandType:as}$	67
RNA1{[fl2r](U)p.r(U)p.[fl2r](C)p.r(U)p.[fl2r](A)p.r(A)p.[fl2r](C)p.r(C)p.[fl2r](G)p.r(G)p.[fl2r](G)p.r(C)p.[fl2r](A)p.r(G)p.[fl2r](C)p.r(U)p.[fl2r](U)p.r(C)p.[fl2r](U)p.r(T)p.r(T)}|RNA2{r(A)p.r(G)p.r(A)p.r(A)p.r(G)p.r(C)p.r(U)p.r(G)p.r(C)p.r(C)p.r(C)p.r(G)p.r(G)p.r(U)p.r(U)p.r(A)p.r(G)p.r(A)p.r(A)p.r(T)p.r(T)}$$$RNA1{StrandType:ss}|RNA2{StrandType:as}$	61
RNA1{[hna](G)p.[hna](A)p.[hna](C)p.r(G)p.r(U)p.r(A)p.r(A)p.r(A)p.r(C)p.r(G)p.r(G)p.r(C)p.r(C)p.r(A)p.r(C)p.r(A)p.r(A)p.[hna](G)p.[hna](U)p.[hna](U)p.d(T)}|RNA2{[fl2r](A)p.m(C)p.[fl2r](U)p.m(U)p.[fl2r](G)p.m(U)p.[fl2r](G)p.m(G)p.[fl2r](C)p.m(C)p.[fl2r](G)p.m(U)p.[fl2r](U)p.m(U)p.[fl2r](A)p.m(C)p.[fl2r](G)p.m(U)p.[fl2r](C)p.m(G)p.[fl2r](C)}$$$RNA1{StrandType:ss}|RNA2{StrandType:as}$	81.8
RNA1{[hna](G)p.[hna](A)p.[hna](C)p.r(G)p.r(U)p.r(A)p.r(A)p.r(A)p.r(C)p.r(G)p.r(G)p.r(C)p.r(C)p.r(A)p.r(C)p.r(A)p.r(A)p.[hna](G)p.[hna](U)p.[hna](U)p.d(T)}|RNA2{r(A)p.[hna](C)p.r(U)p.r(U)p.r(G)p.r(U)p.r(G)p.r(G)p.[hna](C)p.r(C)p.r(G)p.r(U)p.r(U)p.r(U)p.r(A)p.r(C)p.r(G)p.[hna](U)p.[hna](C)p.[hna](G)p.d(T)}$$$RNA1{StrandType:ss}|RNA2{StrandType:as}$	35.8
RNA1{[hna](G)p.[hna](A)p.[hna](C)p.r(G)p.r(U)p.r(A)p.r(A)p.r(A)p.r(C)p.r(G)p.r(G)p.r(C)p.r(C)p.r(A)p.r(C)p.r(A)p.r(A)p.[hna](G)p.[hna](U)p.[hna](U)p.d(T)}|RNA2{r(A)p.[hna](C)p.r(U)p.r(U)p.r(G)p.r(U)p.r(G)p.r(G)p.r(C)p.r(C)p.r(G)p.r(U)p.r(U)p.r(U)p.r(A)p.r(C)p.r(G)p.[hna](U)p.[hna](C)p.[hna](G)p.d(T)}$$$RNA1{StrandType:ss}|RNA2{StrandType:as}$	77.4
RNA1{[hna](G)p.[hna](A)p.[hna](C)p.r(G)p.r(U)p.r(A)p.r(A)p.r(A)p.r(C)p.r(G)p.r(G)p.r(C)p.r(C)p.r(A)p.r(C)p.r(A)p.r(A)p.[hna](G)p.[hna](U)p.[hna](U)p.d(T)}|RNA2{r(A)p.m(C)p.r(U)p.r(U)p.r(G)p.r(U)p.r(G)p.r(G)p.r(C)p.r(C)p.r(G)p.r(U)p.r(U)p.r(U)p.r(A)p.r(C)p.r(G)p.r(U)p.r(C)p.r(G)p.r(C)}$$$RNA1{StrandType:ss}|RNA2{StrandType:as}$	84
RNA1{[hna](G)p.[hna](A)p.[hna](C)p.r(G)p.r(U)p.r(A)p.r(A)p.r(A)p.r(C)p.r(G)p.r(G)p.r(C)p.r(C)p.r(A)p.r(C)p.r(A)p.r(A)p.[hna](G)p.[hna](U)p.[hna](U)p.d(T)}|RNA2{r(A)p.r(C)p.[hna](U)p.r(U)p.r(G)p.r(U)p.r(G)p.r(G)p.r(C)p.r(C)p.r(G)p.r(U)p.r(U)p.r(U)p.r(A)p.r(C)p.r(G)p.[hna](U)p.[hna](C)p.[hna](G)p.d(T)}$$$RNA1{StrandType:ss}|RNA2{StrandType:as}$	80.6
RNA1{[hna](G)p.[hna](A)p.[hna](C)p.r(G)p.r(U)p.r(A)p.r(A)p.r(A)p.r(C)p.r(G)p.r(G)p.r(C)p.r(C)p.r(A)p.r(C)p.r(A)p.r(A)p.[hna](G)p.[hna](U)p.[hna](U)p.d(T)}|RNA2{r(A)p.r(C)p.r(U)p.r(U)p.r(G)p.r(U)p.r(G)p.r(G)p.r(C)p.r(C)p.r(G)p.r(U)p.r(U)p.r(U)p.r(A)p.r(C)p.r(G)p.[hna](U)p.[hna](C)p.[hna](G)p.d(T)}$$$RNA1{StrandType:ss}|RNA2{StrandType:as}$	84.6
RNA1{[hna](G)p.[hna](A)p.[hna](C)p.r(G)p.r(U)p.r(A)p.r(A)p.r(A)p.r(C)p.r(G)p.r(G)p.r(C)p.r(C)p.r(A)p.r(C)p.r(A)p.r(A)p.[hna](G)p.[hna](U)p.[hna](U)p.d(T)}|RNA2{r(A)p.r(C)p.r(U)p.r(U)p.r(G)p.r(U)p.r(G)p.r(G)p.r(C)p.r(C)p.r(G)p.r(U)p.r(U)p.r(U)p.r(A)p.r(C)p.r(G)p.r(U)p.r(C)p.r(G)p.r(C)}$$$RNA1{StrandType:ss}|RNA2{StrandType:as}$	89
RNA1{[hna](G)p.[hna](A)p.[hna](C)p.r(G)p.r(U)p.r(A)p.r(A)p.r(A)p.r(C)p.r(G)p.r(G)p.r(C)p.r(C)p.r(A)p.r(C)p.r(A)p.r(A)p.[hna](G)p.[hna](U)p.r(U)p.d(T)}|RNA2{r(A)p.r(C)p.[lna](T)p.r(U)p.r(G)p.[lna](T)p.r(G)p.r(G)p.r(C)p.r(C)p.r(G)p.r(U)p.r(U)p.[lna](T)p.r(A)p.r(C)p.r(G)p.[lna](T)p.r(C)p.[lna](G)p.[lna](C)}$$$RNA1{StrandType:ss}|RNA2{StrandType:as}$	5.4
